Data taken from patent publication US20130244896A1, “IN VITRO METHOD FOR PREDICTING WHETHER A COMPOUND IS GENOTOXIC IN VIVO” (priority 2012, published 2013).
Like-named read-outs stand apart in the source and are kept apart here.

How the values were obtained:
[1] = test system: microRNA 1262, microRNA 98 and microRNA 30c-1
HepG2 cells = experiment: IC20-72 hours value used as exposure dose in HepG2 cells; assay type: cell-based, human
Description: All measurements were performed in triplicate.

[2] = GTX/NGTX class as in Tables 3-7; cited from earlier work
bacteria = conditions: cited from earlier work
[3] = correct predictions of three independent experiments
[4] = number of the three microRNAs predicting correctly
[5] = Homo sapiens, HepG2 cells, IC20-72 hours, read-out: Dose (IC20-72 hours value)
[6] = HepG2 cells exposed at Table 1 dose
[7] = HepG2 cells, IC20-72 hours, read-out: Dose (IC20-72 hours value)

Compound | correctness of microRNA prediction, 502-3p (hsa-miR-502-3p; [3]) | correctness of microRNA prediction, 1229 (hsa-miR-1229; [3]) | correctness of microRNA prediction, 885-3p (hsa-miR-885-3p; [3]) | correctness of microRNA prediction, 888* (hsa-miR-888*; [3]) | Aggregate result, correct [1, 4] | correctness of microRNA prediction, 1246 (hsa-miR-1246; [3]) | IC20 (HepG2 cells; [5]) [µM] | GTX in vivo [2] | correctness of microRNA prediction, 302b (hsa-miR-302b; [3]) | correctness of microRNA prediction, 891b (hsa-miR-891b; [3]) | Score / correctness of miRNA prediction, 98 (number of correct predictions of three independent experiments) (hsa-miR-98; [6]) | Score / correctness of miRNA prediction, 1262 (number of correct predictions of three independent experiments) (hsa-miR-1262; [6]) | Score / correctness of miRNA prediction, 30c-1 (number of correct predictions of three independent experiments) (hsa-miR-30c-1*; [6]) | IC20 (HepG2 cells; [7]) [µM] | further results
Clc1cc2c(cc1Cl)Oc1cc(Cl)c(Cl)cc1O2 [2,3,7,8-tetrachloro dibenzo-p-dioxin] | (2/3) | (2/3) | (3/3) | (1/3) | 3/3 | (3/3) | 0.01 | NGTX | (2/3) | (2/3) | (3/3) | (3/3) | (2/3) |  | Ames test result (bacteria): −
Oc1cccc2cccnc12 [8-quinolinol] |  |  |  |  |  |  |  |  |  |  |  |  |  |  | correctness of microRNA prediction, 502-3p (hsa-miR-502-3p; human): (2/3); correctness of microRNA prediction, 1229 (hsa-miR-1229; human): (3/3); correctness of microRNA prediction, 885-3p (hsa-miR-885-3p; human): (1/3); correctness of microRNA prediction, 888* (hsa-miR-888*; human): (3/3); Aggregate result, result [1]: NGTX; Aggregate result, correct ([1]; human): 2/3; correctness of microRNA prediction, 1246 (hsa-miR-1246; human): (0/3); IC20 (HepG2 cells; Homo sapiens, HepG2, read-out: Dose (IC20-72 hours value)): 15 µM; correctness of microRNA prediction, 302b (hsa-miR-302b; human): (1/3); correctness of microRNA prediction, 891b (hsa-miR-891b; human): (3/3); Prediction, miRNA 98 (hsa-miR-98): NGTX (key: GTX: hsa-miR-98: Prediction if Expression is above Reference value; NGTX: hsa-miR-98: Prediction if Expression is below Reference value); Score / correctness of miRNA prediction, 98 (number of correct predictions of three independent experiments) (hsa-miR-98; human): (3/3); Prediction, miRNA 30c-1 (hsa-miR-30c-1*): GTX (key: GTX: hsa-miR-30c-1*: Prediction if Expression is above Reference value; NGTX: hsa-miR-30c-1*: Prediction if Expression is below Reference value); Score / correctness of miRNA prediction, 30c-1 (number of correct predictions of three independent experiments) (hsa-miR-30c-1*; human): (1/3); Ames test result (bacteria): +
C[C@]12CC[C@@H]3c4ccc(O)cc4CC[C@H]3[C@@H]1CC[C@@H]2O [17beta-estradiol, 17 beta-estradiol] |  |  |  |  | 3/3 |  |  | NGTX |  |  |  |  |  | 30 | 
CC1(C)S[C@@H]2[C@H](NC(=O)[C@H](N)c3ccccc3)C(=O)N2[C@H]1C(=O)O [Ampicillin trihydrate] | (3/3) | (3/3) | (3/3) | (3/3) | 3/3 | (1/3) | 250 |  | (2/3) | (2/3) | (3/3) | (2/3) | (3/3) |  | 
c1ccc2c(c1)cc1ccc3cccc4ccc2c1c34 [Benzo[a]pyere] | (2/3) | (3/3) | (2/3) | (2/3) | 3/3 | (3/3) |  |  | (2/3) | (3/3) | (2/3) | (2/3) | (2/3) | 2 | 
N.N.[Cl][Pt][Cl] [Cisplatin] |  |  |  |  | 3/3 |  |  | GTX |  |  |  |  |  | 7 | 
O=c1c(O)c(-c2ccc(O)c(O)c2)oc2cc(O)cc(O)c12 [Quercetin] | (1/3) | (1/3) | (1/3) | (1/3) | 2/3 | (2/3) | 50 | NGTX | (1/3) | (2/3) | (1/3) | (3/3) | (3/3) |  | 
Aflatoxin B1 |  |  |  |  |  |  |  |  |  |  |  |  |  |  | correctness of microRNA prediction, 502-3p (hsa-miR-502-3p): (2/3); correctness of microRNA prediction, 1229 (hsa-miR-1229): (1/3); correctness of microRNA prediction, 885-3p (hsa-miR-885-3p): (1/3); correctness of microRNA prediction, 888* (hsa-miR-888*): (3/3); Aggregate result, correct [1]: 3/3; correctness of microRNA prediction, 1246 (hsa-miR-1246): (1/3); IC20 (HepG2 cells; read-out: Dose (IC20-72 hours value)): 1 µM; correctness of microRNA prediction, 302b (hsa-miR-302b): (2/3); correctness of microRNA prediction, 891b (hsa-miR-891b): (2/3); Score / correctness of miRNA prediction, 98 (number of correct predictions of three independent experiments) (hsa-miR-98): (2/3); Score / correctness of miRNA prediction, 1262 (number of correct predictions of three independent experiments) (hsa-miR-1262): (2/3); Score / correctness of miRNA prediction, 30c-1 (number of correct predictions of three independent experiments) (hsa-miR-30c-1*): (2/3)
